Source: US11813306B2, “Cyclic tetramer compounds as proprotein convertase subtilisin/kexin type 9 (PCSK9) inhibitors for the treatment of metabolic disorders” (NOVARTIS AG, priority 2018, dated 2023)

Biological target: human PCSK9 (Homo sapiens, UniProt Q8NBP7)
Test: PCSK9 ligand binding assay (TR-FRET): interference with binding of human PCSK9 to human LDLR
Details: for IC50: Human PCSK9 Alexa Fluor 647 / Human LDLR extracellular domain-Europium Kryptate; for Max % inhibition: efficacy (Amax), 100% = 1 uM unlabeled human PCSK9, 0% = DMSO
In short: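 Read-out was TR-FRET ratio (665 nm over 615 nm, 330 nm excitation) between Alexa Fluor 647-human PCSK9 (16 nM added) and Europium Kryptate-human LDLR ectodomain (4 nM added). Compound and PCSK9 were mixed 30 min before LDLR, then incubated 2 h. Inhibition was normalised to DMSO and unlabelled-PCSK9 controls, giving IC50 and Amax.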

Sequence of human PCSK9 (Q8NBP7 153-692): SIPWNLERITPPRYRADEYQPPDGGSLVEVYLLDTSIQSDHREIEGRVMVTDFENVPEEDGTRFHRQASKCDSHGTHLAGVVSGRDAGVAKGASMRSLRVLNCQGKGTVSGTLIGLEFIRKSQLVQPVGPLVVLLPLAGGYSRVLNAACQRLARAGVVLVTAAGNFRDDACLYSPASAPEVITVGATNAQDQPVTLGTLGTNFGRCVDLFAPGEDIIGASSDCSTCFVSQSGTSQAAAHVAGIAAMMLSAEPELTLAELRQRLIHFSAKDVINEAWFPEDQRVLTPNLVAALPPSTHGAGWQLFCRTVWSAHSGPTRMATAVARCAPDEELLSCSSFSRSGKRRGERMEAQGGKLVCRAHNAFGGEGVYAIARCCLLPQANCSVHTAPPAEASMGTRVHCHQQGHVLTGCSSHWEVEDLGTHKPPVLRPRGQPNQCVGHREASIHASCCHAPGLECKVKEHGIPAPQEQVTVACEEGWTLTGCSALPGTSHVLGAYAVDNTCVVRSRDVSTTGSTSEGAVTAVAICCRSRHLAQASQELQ
Sequence of human PCSK9 (Q8NBP7 31-152 partner limits assumed): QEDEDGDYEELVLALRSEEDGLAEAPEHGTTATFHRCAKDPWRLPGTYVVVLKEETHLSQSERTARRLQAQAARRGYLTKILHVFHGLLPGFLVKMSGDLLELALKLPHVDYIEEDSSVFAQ

SMILES | IC50 [pM] | Max % inhibition [%]
C[C@H]1C(=O)N[C@@H](CO)C(=O)N[C@@]2(Cc3ccc(Cl)cc3)CCCN(C2)C(=O)[C@H]([C@@H]2CCc3ccccc32)CC(=O)N1Cc1ccc(Cl)cc1Oc1ccc(-c2cnc(C3=CCN(C)C3)n2C)cc1.Cl [Compound 77, (3S,7S,10S,13R)-6-(4-chloro-2-(4-(1-methyl-2-(1-methyl-2,5-dihydro-1H-pyrrol-3-yl)-1H-imidazol-5-yl)phenoxy)benzyl)-13-(4-chlorobenzyl)-3-((S)-2,3-dihydro-1H-inden-1-yl)-10-(hydroxymethyl)-7-methyl-1,6,9,12-tetraazabicyclo[11.3.1]heptadecane-2,5,8,11-tetraone hydrochloride] | 979 | 71.9
CCOCCOCCOCc1ncc(-c2ccc(Oc3cc(Cl)ccc3CN3C(=O)N[C@@H](Cc4ccccc4)C(=O)N4CCC[C@@](Cc5ccc(Cl)cc5)(C4)NC(=O)[C@H](CO)NC(=O)[C@@H]3C)cc2)n1C.Cl [Compound 104] | 1840 | 69.1
COC[C@@H]1NC(=O)[C@H](C)N(Cc2ccc(Cl)cc2Oc2ccc(-c3cnc(CN4CC[C@H](N(C)C)C4)n3C)cc2)C(=O)C[C@@H](Cc2ccccc2)C(=O)N2CCC[C@@](Cc3ccc(Cl)cc3)(C2)NC1=O.Cl [Compound 72, (3R, 7S, 10S, 13R)-3-benzyl-6-(4-chloro-2-(4-(2-(((S)-3-(dimethylamino)pyrrolidin-1-yl)methyl)-1-methyl-1H-imidazol-5-yl)phenoxy)benzyl)-13-(4-chlorobenzyl)-10-(methoxymethyl)-7-methyl-1,6,9,12-tetraazabicyclo[11.3.1]heptadecane-2,5,8,11-tetraone] | 837 | 100.1
C[C@H]1C(=O)N[C@@H](CO)C(=O)N[C@@]2(Cc3ccc(Cl)cc3)CCCN(C2)C(=O)[C@H](Cc2c(F)cc(F)cc2F)CC(=O)N1Cc1ccc(Cl)cc1Oc1ccc(-c2cnc(CN(C)C)n2C)cc1 [Compound 46, (3R, 7S, 10S, 13R)-6-(4-chloro-2-(4-(2-((dimethylamino)methyl)-1-methyl-1H-imidazol-5-yl)phenoxy)benzyl)-13-(4-chlorobenzyl)-10-(hydroxymethyl)-7-methyl-3-(2,4,6-trifluorobenzyl)-1,6,9,12-tetraazabicyclo[11.3.1]heptadecane-2,5,8,11-tetraone] | 568 | 112.3
C[C@H]1C(=O)N[C@@H](CO)C(=O)N[C@@]2(Cc3ccc(Cl)cc3)CCCN(C2)C(=O)[C@H]([C@@H]2CCc3ccccc32)CC(=O)N1Cc1ccc(Oc2ccc(-c3cnc(CN(C)C)n3C)cc2)cc1F [Compound 123] | 346000 | 84.4
C[C@H]1C(=O)N[C@@H](CO)C(=O)N[C@@]2(Cc3ccc(Cl)cc3)CCCN(C2)C(=O)[C@H]([C@@H]2CCc3ccccc32)CC(=O)N1Cc1ccc(Cl)cc1Oc1ccc(-c2cnc(C3CN(C)C3)n2C)cc1 [Compound 69, (3S, 7S, 10S, 13R)-6-(4-chloro-2-(4-(1-methyl-2-(1-methylazetidin-3-yl)-1H-imidazol-5-yl)phenoxy)benzyl)-13-(4-chlorobenzyl)-3-((S)-2,3-dihydro-1H-inden-1-yl)-10-(hydroxymethyl)-7-methyl-1,6,9,12-tetraazabicyclo[11.3.1]heptadecane-2,5,8,11-tetraone] | 781 | 70.1
COC[C@@H]1NC(=O)[C@H](C)N(Cc2c(F)cc(Cl)cc2Oc2ccc(-c3cnc(CN(C)C)n3C)cc2)C(=O)C[C@@H](CC(C)(F)F)C(=O)N2CCC[C@@](Cc3ccc(Cl)cc3)(C2)N(C)C1=O [Compound 158, (3S, 7S, 10S, 13R)-6-(4-chloro-2-(4-(2-((dimethylamino)methyl)-1-methyl-1H-imidazol-5-yl)phenoxy)-6-fluorobenzyl)-13-(4-chlorobenzyl)-3-(2,2-difluoropropyl)-10-(methoxymethyl)-7,12-dimethyl-1,6,9,12-tetraazabicyclo[11.3.1]heptadecane-2,5,8,11-tetraone] | 960 | 110.3
C[C@H]1C(=O)N[C@@H](CO)C(=O)N[C@@]2(Cc3ccc(Cl)cc3)CCCN(C2)C(=O)[C@H](CC(F)(F)F)CC(=O)N1Cc1c(F)cc(Cl)cc1Oc1ccc(-c2cnc(CN(C)C3CCC3)n2C)cc1 [Compound 139, (3S, 7S, 10S, 13R)-6-(4-chloro-2-(4-(2-((cyclobutyl(methyl)amino)methyl)-1-methyl-1H-imidazol-5-yl)phenoxy)-6-fluorobenzyl)-13-(4-chlorobenzyl)-10-(hydroxymethyl)-7-methyl-3-(2,2,2-trifluoroethyl)-1,6,9,12-tetraazabicyclo[11.3.1]heptadecane-2,5,8,11-tetraone] | 150 | 113.0
C[C@H]1C(=O)N[C@@H](CO)C(=O)N(C)[C@H](Cc2ccc(Cl)cc2)CN(C)C(=O)[C@H]([C@H]2COc3ccccc32)CC(=O)N1Cc1ccc(Cl)cc1Oc1ccc(-c2cnc(CN3CCCC3)n2C)cc1.Cl [Compound 102, (2S, 5S, 8R, 12S)-1-(4-chloro-2-(4-(1-methyl-2-(pyrrolidin-1-ylmethyl)-1H-imidazol-5-yl)phenoxy)benzyl)-8-(4-chlorobenzyl)-12-((R)-2,3-dihydrobenzofuran-3-yl)-5-(hydroxymethyl)-2,7,10-trimethyl-1,4,7,10-tetraazacyclotetradecane-3,6,11,14-tetraone] | 1380 | 100.8
COC[C@@H]1NC(=O)[C@H](C)N(Cc2ccc(Cl)cc2Oc2ccc(-c3cnc(CN4CCCC4)n3C)cc2)C(=O)C[C@@H]([C@H]2COc3c(OC)cccc32)C(=O)N(C)C[C@@H](Cc2ccc(Cl)cc2)N(C)C1=O.Cl [Compound 110, (2S, 5S, 8R, 12S)-1-(4-chloro-2-(4-(1-methyl-2-(pyrrolidin-1-ylmethyl)-1H-imidazol-5-yl)phenoxy)benzyl)-8-(4-chlorobenzyl)-12-((R)-7-methoxy-2,3-dihydrobenzofuran-3-yl)-5-(methoxymethyl)-2,7,10-trimethyl-1,4,7,10-tetraazacyclotetradecane-3,6,11,14-tetraone] | 10200 | 102.2
COC[C@@H]1NC(=O)[C@H](C)N(Cc2c(F)cc(Cl)cc2Oc2ccc(-c3cnc(CN(C)C)n3C)cc2)C(=O)C[C@@H](C2CCC2)C(=O)N2CCC[C@@](Cc3ccc(Cl)cc3)(C2)N(C)C1=O [Compound 140, (3S, 7S, 10S, 13R)-6-(4-chloro-2-(4-(2-((dimethylamino)methyl)-1-methyl-1H-imidazol-5-yl)phenoxy)-6-fluorobenzyl)-13-(4-chlorobenzyl)-3-cyclobutyl-10-(methoxymethyl)-7,12-dimethyl-1,6,9,12-tetraazabicyclo[11.3.1]heptadecane-2,5,8,11-tetraone] | 1450 | 109.6
COC[C@@H]1NC(=O)[C@H](C)N(Cc2c(F)cc(Cl)cc2Oc2ccc(-c3cnc(CNC4CCC4)n3C)cc2)C(=O)C[C@@H](CC(F)(F)F)C(=O)N2CCC[C@@](Cc3ccc(Cl)cc3)(C2)NC1=O [Compound 45, (3S,7S,10S,13R)-6-(4-Chloro-2-(4-(2-((cyclobutylamino)methyl)-1-methyl-1H-imidazol-5-yl)phenoxy)-6-fluorobenzyl)-13-(4-chlorobenzyl)-10-(methoxymethyl)-7-methyl-3-(2,2,2-trifluoroethyl)-1,6,9,12-tetraazabicyclo[11.3.1]heptadecane-2,5,8,11-tetraone] | 816 | 103.7
C[C@H]1C(=O)N[C@@H](CO)C(=O)N[C@@]2(Cc3ccc(Cl)cc3)CCCN(C2)C(=O)[C@H](CC2CC2)CC(=O)N1Cc1c(F)cc(Cl)cc1Oc1ccc(-c2cnc(CN3CCCC3)n2C)cc1 [Compound 10, (3R, 7S, 10S, 13R)-6-(4-chloro-2-fluoro-6-(4-(1-methyl-2-(pyrrolidin-1-ylmethyl)-1H-imidazol-5-yl)phenoxy)benzyl)-13-(4-chlorobenzyl)-3-(cyclopropylmethyl)-10-(hydroxymethyl)-7-methyl-1,6,9,12-tetraazabicyclo[11.3.1]heptadecane-2,5,8,11-tetraone] | 152 | 115.5
CCn1c(-c2ccc(Oc3cc(Cl)cc(F)c3CN3C(=O)C[C@@H](CC(F)(F)F)C(=O)N4CCC[C@@](Cc5ccc(Cl)cc5)(C4)NC(=O)[C@H](CO)NC(=O)[C@@H]3C)cc2)cnc1CN(C)C [Compound 88, (3S, 7S, 10S, 13R)-6-(4-chloro-2-(4-(2-((dimethylamino)methyl)-1-ethyl-1H-imidazol-5-yl)phenoxy)-6-fluorobenzyl)-13-(4-chlorobenzyl)-10-(hydroxymethyl)-7-methyl-3-(2,2,2-trifluoroethyl)-1,6,9,12-tetraazabicyclo[11.3.1]heptadecane-2,5,8,11-tetraone] | 3160 | 99.0
COC[C@@H]1NC(=O)[C@H](C)N(Cc2c(F)cc(Cl)cc2Oc2ccc(-c3cnc(CNC(C)(C)C)n3C)cc2)C(=O)C[C@@H](C2CC(F)(F)C2)C(=O)N2CCC[C@@](Cc3ccc(Cl)cc3)(C2)N(C)C1=O [Compound 165, (3S,7S,10S,13R)-6-(2-(4-(2-((tert-butylamino)methyl)-1-methyl-1H-imidazol-5-yl)phenoxy)-4-chloro-6-fluorobenzyl)-13-(4-chlorobenzyl)-3-(3,3-difluorocyclobutyl)-10-(methoxymethyl)-7,12-dimethyl-1,6,9,12-tetraazabicyclo[11.3.1]heptadecane-2,5,8,11-tetraone] | 930 | 113.3
